Like-named read-outs stand apart in the source and are kept apart here.
Assays:
PI3K p110δ/p85α (human) = PI3K p110δ/p85α (human) (Homo sapiens (Human), UniProt O00329); test: PI3K p110δ/p85α (human), non-radioactive assay (HTRF); type: biochemical; settings: as printed:
Method: PI3K p110δ/p85α (Human), Non-radioactive Assay
(§1) PI3K p110δ/p85α (human) was incubated in an assay buffer comprising 10 μM phosphati-dylinositol 4,5-bisphosphate and MgATP (concentration as necessary). The reaction was initiated by addition of MgATP solution. After an incubation time of 30 min at room temperature, the reaction was stopped by addition of a solution consisting of EDTA and biotinylated phosphatidylinositol 3,4,5-trisphosphate. Finally, the detection buffer, consisting of a europium-labelled anti-GST monoclonal antibody, a GST-labelled GRP1 PH domain and streptavidin allophycocyanin, was added. The plate was read out via homogeneous time-resolved fluorescence (HTRF) and the corresponding signals were evaluated via the formula HTRF=10000×(Em665nm/Em620nm).

PI3K p110α/p85α (human) = PI3K p110α/p85α (human) (Homo sapiens (Human), UniProt P42336); test: PI3K p110α/p85α (human), non-radioactive assay (HTRF); type: biochemical; settings: as printed:
Method: PI3K p110α/p85α (Human), Non-radioactive Assay
as §1, with “p110α/p85α” for “p110δ/p85α”, “After” for “After an”, “incubation” for “incubation time of 30 min”, “temperature for 40 minutes,” for “temperature,”

[1] = molecular target: purified human recombinant ATM (ataxia telangiectasia mutated), full length (Homo sapiens (Human), UniProt Q13315); test: ATM kinase assay - determination of ATM inhibition (IC50 ATM), TR-FRET; type: biochemical; settings: 10 μM ATP, substrate p53
Chain of purified human recombinant ATM (ataxia telangiectasia mutated), full length (Q13315 whole entry, change not shown): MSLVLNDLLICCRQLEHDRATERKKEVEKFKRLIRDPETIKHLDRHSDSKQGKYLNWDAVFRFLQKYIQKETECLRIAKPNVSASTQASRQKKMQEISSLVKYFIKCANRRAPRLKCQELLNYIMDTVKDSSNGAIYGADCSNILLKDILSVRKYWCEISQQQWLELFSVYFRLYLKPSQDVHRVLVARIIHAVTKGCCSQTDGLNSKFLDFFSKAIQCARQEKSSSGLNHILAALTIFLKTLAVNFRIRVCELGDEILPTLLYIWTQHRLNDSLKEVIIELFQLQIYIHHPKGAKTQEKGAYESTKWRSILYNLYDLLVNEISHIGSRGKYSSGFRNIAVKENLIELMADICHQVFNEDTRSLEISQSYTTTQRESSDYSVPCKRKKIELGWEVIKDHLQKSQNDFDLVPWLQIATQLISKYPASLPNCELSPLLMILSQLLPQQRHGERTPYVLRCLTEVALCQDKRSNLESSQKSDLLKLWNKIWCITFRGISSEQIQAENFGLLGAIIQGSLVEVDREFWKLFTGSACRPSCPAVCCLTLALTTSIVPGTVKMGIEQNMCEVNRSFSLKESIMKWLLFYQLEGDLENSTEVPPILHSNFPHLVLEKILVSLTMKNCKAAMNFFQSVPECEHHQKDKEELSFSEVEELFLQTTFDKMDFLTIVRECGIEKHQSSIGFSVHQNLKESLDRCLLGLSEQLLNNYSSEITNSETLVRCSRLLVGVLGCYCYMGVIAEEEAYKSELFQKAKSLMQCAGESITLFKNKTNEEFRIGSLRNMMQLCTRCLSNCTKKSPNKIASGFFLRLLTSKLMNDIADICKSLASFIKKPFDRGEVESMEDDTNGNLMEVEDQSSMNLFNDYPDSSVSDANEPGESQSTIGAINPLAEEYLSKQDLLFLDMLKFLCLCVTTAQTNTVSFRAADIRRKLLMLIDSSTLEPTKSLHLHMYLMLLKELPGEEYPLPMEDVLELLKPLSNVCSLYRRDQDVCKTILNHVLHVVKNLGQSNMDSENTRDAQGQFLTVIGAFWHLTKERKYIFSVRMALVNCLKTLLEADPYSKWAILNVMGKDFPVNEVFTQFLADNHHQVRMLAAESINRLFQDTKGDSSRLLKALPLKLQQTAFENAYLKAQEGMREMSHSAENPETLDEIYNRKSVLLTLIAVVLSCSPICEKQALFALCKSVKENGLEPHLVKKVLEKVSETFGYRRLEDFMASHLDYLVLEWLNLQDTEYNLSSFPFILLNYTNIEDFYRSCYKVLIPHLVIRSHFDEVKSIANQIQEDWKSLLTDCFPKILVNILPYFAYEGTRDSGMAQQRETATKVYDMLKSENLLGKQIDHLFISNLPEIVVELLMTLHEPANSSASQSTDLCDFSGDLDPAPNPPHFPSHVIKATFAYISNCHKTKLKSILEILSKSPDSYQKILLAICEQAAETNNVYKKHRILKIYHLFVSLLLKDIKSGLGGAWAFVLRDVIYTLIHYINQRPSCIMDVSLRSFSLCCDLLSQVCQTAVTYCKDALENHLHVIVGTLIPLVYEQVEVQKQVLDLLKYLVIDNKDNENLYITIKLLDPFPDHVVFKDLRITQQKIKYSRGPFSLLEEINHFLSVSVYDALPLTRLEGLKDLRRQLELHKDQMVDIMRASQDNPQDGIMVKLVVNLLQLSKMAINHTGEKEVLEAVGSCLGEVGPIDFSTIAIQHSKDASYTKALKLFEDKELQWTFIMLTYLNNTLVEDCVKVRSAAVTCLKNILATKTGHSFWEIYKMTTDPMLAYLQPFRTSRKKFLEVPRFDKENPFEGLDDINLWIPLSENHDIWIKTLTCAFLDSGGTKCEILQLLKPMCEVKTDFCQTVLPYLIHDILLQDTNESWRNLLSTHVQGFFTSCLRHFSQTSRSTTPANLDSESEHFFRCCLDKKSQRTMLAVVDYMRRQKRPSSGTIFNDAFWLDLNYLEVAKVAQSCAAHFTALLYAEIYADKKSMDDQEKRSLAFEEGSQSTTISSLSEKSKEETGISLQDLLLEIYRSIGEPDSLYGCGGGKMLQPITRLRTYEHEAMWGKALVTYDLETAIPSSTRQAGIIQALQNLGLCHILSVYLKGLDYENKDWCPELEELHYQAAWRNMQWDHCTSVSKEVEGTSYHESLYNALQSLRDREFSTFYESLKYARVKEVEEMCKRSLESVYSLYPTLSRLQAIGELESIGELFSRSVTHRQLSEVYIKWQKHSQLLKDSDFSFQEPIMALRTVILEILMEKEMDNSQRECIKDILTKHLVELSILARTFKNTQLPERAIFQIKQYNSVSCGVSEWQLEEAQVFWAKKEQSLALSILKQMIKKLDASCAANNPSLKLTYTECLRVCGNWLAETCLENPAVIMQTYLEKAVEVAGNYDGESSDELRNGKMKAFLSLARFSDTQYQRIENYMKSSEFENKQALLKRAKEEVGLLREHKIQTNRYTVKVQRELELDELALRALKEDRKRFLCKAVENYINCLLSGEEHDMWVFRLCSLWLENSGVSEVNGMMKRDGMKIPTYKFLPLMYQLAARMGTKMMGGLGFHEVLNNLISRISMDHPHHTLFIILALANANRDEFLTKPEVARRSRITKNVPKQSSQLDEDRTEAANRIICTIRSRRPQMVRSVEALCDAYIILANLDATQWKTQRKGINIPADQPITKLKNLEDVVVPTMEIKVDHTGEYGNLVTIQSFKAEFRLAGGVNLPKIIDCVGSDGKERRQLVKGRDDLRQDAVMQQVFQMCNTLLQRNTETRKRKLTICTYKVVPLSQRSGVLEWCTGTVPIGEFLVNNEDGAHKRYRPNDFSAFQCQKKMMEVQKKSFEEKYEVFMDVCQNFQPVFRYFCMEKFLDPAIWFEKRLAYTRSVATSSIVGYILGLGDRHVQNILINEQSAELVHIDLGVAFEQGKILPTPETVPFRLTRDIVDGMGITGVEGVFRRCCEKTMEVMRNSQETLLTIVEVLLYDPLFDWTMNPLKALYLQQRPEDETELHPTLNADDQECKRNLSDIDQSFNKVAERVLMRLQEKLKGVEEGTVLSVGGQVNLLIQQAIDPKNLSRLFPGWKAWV
Method: ATM kinase assay—determination of ATM inhibition (IC50 ATM):
The IC50 value was determined with the aid of a biochemical ATM kinase assay. The assay consists of two steps: the enzymatic reaction and the detection step. Firstly, ATM (ataxia telangiectasia mutated) protein and the test substance are incubated at different concentrations with addition of substrate protein p53 and ATP. ATM mediates the phosphorylation of p53 at several positions, including at amino acid S15. The amount of phosphorylated p53 is determined with the aid of specific antibodies and the TR-FRET technique. The enzymatic ATM assay is carried out as TR-FRET (HTRF™, Cisbio Bioassays) based 384-well assay. In the first step, purified human recombinant ATM (human ATM, full length, GenBank ID NM_000051, expressed in a mammal cell line) is incubated in assay buffer for 15 minutes with the ATM inhibitor in various concentrations and without test substance as negative or neutral control. The assay buffer comprises 25 mM HEPES pH 8.0, 10 mM Mg(CH3COO)2, 1 mM MnCl2, 0,1% BSA and 0,01% Brij® 35, 5 mM dithiothreitol (DTT). […] In the second step, purified human recombinant cmyc-labelled p53 (human p53, full length, GenBank ID BC003596, expressed in Sf21 insect cells) and ATP are added, and the reaction mixture is incubated at 22° C. for 30-35 minutes. The pharmacologically relevant assay volume is 5 μl. […] The enzymatic reaction is stopped by addition of EDTA. […] After incubation, usually for 2 hours (between 1.5 and 15h), for signal development, the plates are analysed in a plate reader (EnVision, PerkinElmer) using TRF mode (and with laser excitation). […] The measurement data were processed by means of Genedata Screener software.

[2] = system: phosphorylation of CHK2 (phospho-Thr68) in HCT116 cells; test: Cellular pCHK2 assay: bleomycin-induced phosphorylation of CHK2 (phospho-Thr68), immunofluorescence high-content analysis; type: cell-based, human; settings: read-out: IC50 (pCHK2)
Source text: For the identification of substances which inhibit the phosphorylation of the protein kinase CHK2 at the amino acid threonine 68, an immunofluorescence-based “high content” analysis assay was used in HCT116 cells.
In vitro cell-based immunofluorescence assay for the identification of inhibitors of bleomycin-induced phosphorylation of CHK2 (phospho-Thr68) in the human colon carcinoma cell line HCT116:
HCT116 cells are sown out in a defined cell density in 384-well plates in culture medium (DMEM high glucose, 2 mM GlutaMax, 1 mM Na pyruvate, 10% FCS) and incubated overnight at 37° C. and 10% of CO2. On the following day, the test substances are added in a defined concentration range (1 nM to 30 μM) in combination with 10 μM bleomycin, where the concentration of the solvent DMSO is kept constant at 0.5%. […] Parallel staining of DNA with propidium iodide enables determination of the cell count. The pCHK2 signal is detected using a high-content imager (Molecular Devices IMX Ultra) and automatic image analysis using the MetaXpress software belonging to the instrument. The number of cell nuclei which have a pCHK2 signal above a defined background is determined.

PI3K (p120γ) (human) = PI3K (p120γ) (human) (Homo sapiens (Human), UniProt P48736); test: PI3K (p120γ) (human), non-radioactive assay (HTRF); type: biochemical; settings: as printed:
Method: PI3K (p120γ) (Human), Non-radioactive Assay
as §1, with “(p120γ)” for “p110δ/p85α”, “HTRF=10000×(Em665nm/Em620nm). • MgATP=magnesium 5′-O—[hydroxy({[(hydroxyphosphinato)oxy]phosphinato}oxy)phosphoryl]adenosine • MgCl2=magnesium dichloride • EGTA=ethylene glycol bis(aminoethyl ether) N,N,N′,N′-tetraacetic acid • Tween 20=polysorbate 20 Medicament/pharmaceutical Composition” for “HTRF=10000×(Em665nm/Em620nm).”

Chain of PI3K p110α/p85α (human) (P42336 whole entry): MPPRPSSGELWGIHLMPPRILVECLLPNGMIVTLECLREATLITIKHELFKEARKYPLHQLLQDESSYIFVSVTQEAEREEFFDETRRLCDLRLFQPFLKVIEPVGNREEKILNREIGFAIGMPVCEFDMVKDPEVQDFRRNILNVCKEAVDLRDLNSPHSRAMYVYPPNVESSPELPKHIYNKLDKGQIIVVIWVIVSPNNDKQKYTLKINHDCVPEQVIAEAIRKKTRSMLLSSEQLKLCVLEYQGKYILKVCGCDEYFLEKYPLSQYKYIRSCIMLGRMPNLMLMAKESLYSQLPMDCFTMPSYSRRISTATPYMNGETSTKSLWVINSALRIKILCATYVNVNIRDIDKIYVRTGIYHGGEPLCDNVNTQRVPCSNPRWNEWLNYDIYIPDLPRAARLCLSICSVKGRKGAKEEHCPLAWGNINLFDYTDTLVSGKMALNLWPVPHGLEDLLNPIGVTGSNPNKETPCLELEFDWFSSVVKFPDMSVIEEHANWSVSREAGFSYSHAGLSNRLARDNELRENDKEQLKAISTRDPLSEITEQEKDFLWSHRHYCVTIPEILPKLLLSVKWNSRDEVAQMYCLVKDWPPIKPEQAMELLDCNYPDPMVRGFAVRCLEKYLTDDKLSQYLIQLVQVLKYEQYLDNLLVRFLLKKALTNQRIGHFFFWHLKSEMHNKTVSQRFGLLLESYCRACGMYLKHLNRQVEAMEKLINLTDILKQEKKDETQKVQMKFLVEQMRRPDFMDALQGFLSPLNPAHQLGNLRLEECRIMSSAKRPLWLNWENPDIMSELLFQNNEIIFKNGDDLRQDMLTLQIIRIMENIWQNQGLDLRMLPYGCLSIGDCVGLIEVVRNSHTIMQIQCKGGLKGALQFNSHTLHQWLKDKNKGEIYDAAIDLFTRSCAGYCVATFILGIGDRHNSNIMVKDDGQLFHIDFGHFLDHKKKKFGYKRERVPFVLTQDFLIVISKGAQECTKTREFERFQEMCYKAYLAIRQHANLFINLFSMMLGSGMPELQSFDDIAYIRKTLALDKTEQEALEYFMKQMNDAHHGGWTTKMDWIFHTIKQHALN
Chain of PI3K p110α/p85α (human) (P27986 whole entry partner): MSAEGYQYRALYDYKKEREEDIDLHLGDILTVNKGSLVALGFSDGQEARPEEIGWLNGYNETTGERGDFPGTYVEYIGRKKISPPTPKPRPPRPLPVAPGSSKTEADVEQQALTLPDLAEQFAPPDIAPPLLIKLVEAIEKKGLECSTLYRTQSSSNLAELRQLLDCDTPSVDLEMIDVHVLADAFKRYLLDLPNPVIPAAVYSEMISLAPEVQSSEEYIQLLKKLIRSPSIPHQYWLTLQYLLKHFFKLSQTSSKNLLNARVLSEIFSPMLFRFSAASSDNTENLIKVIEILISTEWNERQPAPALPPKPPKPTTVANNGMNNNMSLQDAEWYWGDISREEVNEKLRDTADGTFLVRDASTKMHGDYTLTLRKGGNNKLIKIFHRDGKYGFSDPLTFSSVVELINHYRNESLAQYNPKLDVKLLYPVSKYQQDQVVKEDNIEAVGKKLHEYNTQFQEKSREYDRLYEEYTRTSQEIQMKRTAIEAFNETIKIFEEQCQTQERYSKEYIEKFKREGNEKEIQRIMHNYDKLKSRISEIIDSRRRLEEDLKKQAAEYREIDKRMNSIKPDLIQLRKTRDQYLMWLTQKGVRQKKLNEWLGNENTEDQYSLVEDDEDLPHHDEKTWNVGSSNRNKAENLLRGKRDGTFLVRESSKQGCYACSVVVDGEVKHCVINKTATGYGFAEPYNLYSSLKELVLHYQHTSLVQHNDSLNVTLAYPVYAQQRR

Molecule	ratio IC50 (ATM) vs PI3Kdelta, selectivity with respect to PI3Kdelta (PI3K p110δ/p85α (human))	ratio IC50 (ATM) vs PI3Kalpha, selectivity with respect to PI3Kalpha (PI3K p110α/p85α (human))	IC50 [1]	IC50 ([2]; Homo sapiens, HCT-116, 4 h)	ratio IC50 (ATM) vs PI3Kgamma, selectivity with respect to PI3Kgamma (PI3K (p120γ) (human))	IC50 ([2]; HCT116 cells, 10 μM bleomycin, 4 h)
COc1cc2ncc3c(c2cc1-c1cnn(C)c1)n(-c1ncc(OC2CNC2)cc1F)c(=O)n3C [compound 205, 1-[5-(Azetidin-3-yloxy)-3-fluoropyridin-2-yl]-7-methoxy-3-methyl-8-(1-methyl-1H-pyrazol-4-yl)-1,3-dihydroimidazo[4,5-c]-quinolin-2-one]	at least 2000 times	at least 2000 times	< 1 nM	200 to 1000 nM	at least 2000 times	–
COCCOc1cnc(-n2c(=O)n(C)c3cnc4cc(OC)c(-c5cnn(C)c5)cc4c32)c(F)c1 [compound 66, 1-[3-Fluoro-5-(2-methoxy-ethoxy)-2-pyridyl]-7-methoxy-3-methyl-8-(1-methylpyrazol-4-yl)imidazo-[4,5-c]quinolin-2-one]	at least 2000 times	at least 2000 times	< 1 nM	< 200 nM	at least 2000 times	–
COc1cc2ncc3c(c2cc1-c1cn(C)nc1C)n(-c1c(F)cncc1OC(F)F)c(=O)n3C [compound 147, 1-(3-Difluoromethoxy-5-fluoropyridin-4-yl)-8-(1,3-dimethyl-1H-pyrazol-4-yl)-7-methoxy-3-methyl-1,3-dihydroimidazo[4,5-c]-quinolin-2-one]	–	–	< 1 nM	< 200 nM	–	–
CCc1cncc(F)c1-n1c(=O)n(C)c2cnc3cc(OC)c(-c4cn(C)nn4)cc3c21 [compound 126, 1-(3-Ethyl-5-fluoropyridin-4-yl)-7-methoxy-3-methyl-8-(1-methyl-1H-1,2,3-triazol-4-yl)-1,3-dihydroimidazo-[4,5-c] quinolin-2-one]	at least 2000 times	at least 2000 times	< 10 nM	200 to 1000 nM	at least 2000 times	–
[2H]C([2H])([2H])Oc1cnc(-n2c(=O)n(C)c3cnc4cc(OC)c(-c5cnn(C)c5)cc4c32)c(F)c1 [compound 155, 1-[3-Fluoro-5-(trideuterio-methoxy)-2-pyridyl]-7-methoxy-3-methyl-8-(1-methylpyrazol-4-yl) imidazo-[4,5-c]quinolin-2-one]	–	–	< 1 nM	< 200 nM	–	–
COc1cc2ncc3c(c2cc1-c1cnn(C)c1)n(-c1ncc(OC(F)F)cc1F)c(=O)n3C [compound 114, 1-(5-Difluoromethoxy-3-fluoropyridin-2-yl)-7-methoxy-3-methyl-8-(1-methyl-1H-pyrazol-4-yl)-1,3-dihydroimidazo[4,5-c]-quinolin-2-one]	at least 2000 times	at least 2000 times	< 1 nM	< 200 nM	at least 2000 times	–
COc1cc2ncc3c(c2cc1-c1cnn(C)c1)n(-c1ncc(OCCO)cc1F)c(=O)n3C [compound 67, 1-[3-Fluoro-5-(2-hydroxy-ethoxy)-2-pyridyl]-7-methoxy-3-methyl-8-(1-methylpyrazol-4-yl)imidazo-[4,5-c]quinolin-2-one]	at least 2000 times	at least 2000 times	< 1000 nM	< 200 nM	at least 2000 times	–
COc1cc2ncc3c(c2cc1-c1cnn(C)c1)n(-c1ncc(N2CCNCC2)cc1F)c(=O)n3C [compound 123, 1-(3-Fluoro-5-piperazin-1-yl-pyridin-2-yl)-7-methoxy-3-methyl-8-(1-methyl-1H-pyrazol-4-yl)-1,3-dihydro-imidazo[4,5-c]quinolin-2-one]	at least 2000 times	at least 2000 times	< 10 nM	200 to 1000 nM	at least 2000 times	–
CNC(=O)c1cnc(-n2c(=O)n(C)c3cnc4cc(OC)c(-c5cnn(C)c5)cc4c32)c(F)c1 [compound 138, 5-Fluoro-6-[7-methoxy-3-methyl-8-(1-methyl-1H-pyrazol-4-yl)-2-oxo-2,3-dihydroimidazo[4,5-c]-quinolin-1-yl]-N-methyl-nicotinamid]	–	–	< 10 nM	200 to 1000 nM	–	–
COc1cc2ncc3c(c2cc1-c1cc[nH]n1)n(-c1cn(C)nc1C)c(=O)n3C [compound 121, 1-(1,3-Dimethyl-1H-pyrazol-4-yl)-7-methoxy-3-methyl-8-(1H-pyrazol-3-yl)-1,3-dihydroimidazo[4,5-c]-quinolin-2-one]	–	–	< 10 nM	< 200 nM	–	–
CCc1cnccc1-n1c(=O)n(C)c2cnc3cc(OC)c(-c4cnn(CC)c4)cc3c21 [compound 157, 8-(1-Ethyl-1H-pyrazol-4-yl)-1-(3-ethylpyridin-4-yl)-7-methoxy-3-methyl-1,3-dihydroimidazo[4,5-c] quinolin-2-one]	–	–	< 10 nM	< 200 nM	–	–
COc1cnc(-n2c(=O)n(C)c3cnc4cc(OC)c(-c5cnn(C)c5)cc4c32)c(F)c1 [compound 105, 1-(3-Fluoro-5-methoxy-pyridin-2-yl)-7-methoxy-3-methyl-8-(1-methyl-1H-pyrazol-4-yl)-1,3-dihydro-imidazo[4,5-c]quinolin-2-one]	–	–	< 1 nM	200 to 1000 nM	–	–
1-(3-Fluoro-5-methylpyridin- 4-yl)-7-methoxy-3-methyl-8- (2-methyl-2H-1,2,3-triazol- 4-yl)-1,3-dihydroimidazo- [4,5-c] quinolin-2-one [compound 103]	–	–	< 50 nM	–	–	200 to 1000 nM
